Test results reported in PubChem BioAssay (NCI).
Several values for one entry are separate records, joined by “and”; a condition that tells them apart may be missing. Identical values can stand only once.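 Briefly, cells in 96-well plates were exposed to five compound concentrations for 48 h, and endpoints were estimated by linear interpolation. The concentration for 50% growth inhibition is given as GI50. TGI: total growth inhibition.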

What was measured:
Assay in all cases: inhibition of tumour cell growth, NCI panel, 48 h
MDA-MB-231 breast = test system: MDA-MB-231 breast
U251 CNS = test system: U251 CNS
KM12 colon = test system: KM12 colon
ACHN renal = test system: ACHN renal
TK-10 renal = test system: TK-10 renal
A549 NSCLC = test system: A549 NSCLC
COLO 205 colon = test system: COLO 205 colon
UACC-257 melanoma = test system: UACC-257 melanoma
CAKI-1 renal = test system: CAKI-1 renal
NCI-H23 lung = test system: NCI-H23 lung

SMILES	TGI (MDA-MB-231 breast)	TGI (U251 CNS)	TGI (KM12 colon)	TGI (ACHN renal)	TGI (TK-10 renal)	TGI (A549 NSCLC)	TGI (COLO 205 colon)	TGI (UACC-257 melanoma)	TGI (CAKI-1 renal)	TGI (NCI-H23 lung)	GI50 (MDA-MB-231 breast)	GI50 (KM12 colon)	GI50 (ACHN renal)	GI50 (TK-10 renal)	GI50 (A549 NSCLC)	GI50 (COLO 205 colon)	GI50 (UACC-257 melanoma)	GI50 (CAKI-1 renal)	GI50 (NCI-H23 lung)
Fc1ccc(OCc2ccc3nc(-c4ccccc4)c(Cl)nc3c2)cc1	47.3 µM	39 µM	> 100 µM	71.7 µM	90.1 µM	> 100 µM	> 100 µM	> 100 µM	60.6 µM	> 100 µM	–	–	–	–	–	–	–	–	–
CC(Br)CN(CC(C)Br)c1ccc2c(c1)Cc1ccccc1-2 (centres undefined)	26.8 µM	22.7 µM	31.4 µM	19.5 µM	26.2 µM	24.4 µM	27.5 µM	28.1 µM	21.1 µM	26.9 µM	–	–	–	–	–	–	–	–	–
C[C@@](Br)(C(=O)O)[C@H](Br)C(=O)O	> 100 µM	> 100 µM	> 100 µM	> 100 µM	> 100 µM	> 100 µM	> 100 µM	> 100 µM	> 100 µM	> 100 µM	–	–	–	–	–	–	–	–	–
CC(=O)Nc1ccc2c(c1)nc1c3ccccc3ccn21	> 100 µM	> 100 µM	> 100 µM	> 100 µM	> 100 µM	> 100 µM	> 100 µM	> 100 µM	> 100 µM	> 100 µM	–	–	–	–	–	–	–	–	–
Cc1cccc2c(N)c3cccc(C(=O)NCC[N+](C)(C)[O-])c3nc12	75.1 µM	> 100 µM	> 100 µM	77.9 µM	> 100 µM	> 100 µM	40.4 µM	60.3 µM	> 100 µM	16.7 µM	–	–	–	–	–	–	–	–	–
CC(C)(C)[Si](C)(C)OC1CCOC1(O)c1ccccn1 (centres undefined)	> 100 µM	> 100 µM	> 100 µM	> 100 µM	> 100 µM	> 100 µM	> 100 µM	> 100 µM	> 100 µM	> 100 µM	–	–	–	–	–	–	–	–	–
CCC1(c2ccc(OC)c(OC)c2)CCN2C(=O)C(O)CC21 (centres undefined)	> 100 µM	> 100 µM	> 100 µM	> 100 µM	> 100 µM	> 100 µM	> 100 µM	> 100 µM	> 100 µM	> 100 µM	–	–	–	–	–	–	–	–	–
C[N+]1(CCCCN2c3ccccc3Sc3cc(N=[N+]=[N-])ccc32)CCN(C(=O)CCNC(=O)Cc2ccc(C(=O)c3ccccc3)cc2)CC1	81 µM	> 87.3 µM	61.2 µM	37.2 µM	26.5 µM	> 72.6 µM	34.9 µM	> 75.8 µM	57.5 µM	> 82.4 µM	–	–	–	–	–	–	–	–	–
CCOC(=O)C(NC(=O)CC)(Nc1ccccc1F)C(F)(F)F (centres undefined)	> 100 µM	> 100 µM	> 100 µM	> 100 µM	> 100 µM	> 100 µM	> 100 µM	> 100 µM	> 100 µM	> 100 µM	–	–	–	–	–	–	–	–	–
C=C1C[C@@H]2CC[C@@]34CC5O[C@H]6C(O[C@H]7CC[C@H](CC(=O)O[C@@H]8[C@@H](C)[C@@H]9O[C@@H]%10C[C@]%11(C[C@@H]%12O[C@]%13(C[C@H](C)[C@@H]%14O[C@@H]%15CC(C(COC(C)=O)OC(C)=O)O[C@@H]%15C[C@@H]%14O%13)C[C@H](C)[C@@H]%12O%11)O[C@@H]%10C[C@@H]9O[C@H]8CC8O[C@@H](CC[C@@H]1O2)C[C@@H](C)C8(O)CO)O[C@@H]7[C@@H]6O3)[C@H]5O4 (some centres undefined)	> 1 µM	> 1 µM	> 0.792 µM	> 1 µM	> 1 µM	> 1 µM	> 1 µM	> 0.53 µM	> 1 µM	0.997 µM	–	–	–	–	–	–	–	–	–
C/C(=C\CO)CC[C@@H]1[C@@]2(C)CCCC(C)(C)[C@@H]2CC[C@@]1(C)O	31 µM	31 µM	43 µM	> 100 µM	31.3 µM	92.7 µM	32.7 µM	38 µM	72.1 µM	40 µM	–	–	–	–	–	–	–	–	–
O=c1cccc2n1CC1CNCC2C1 (centres undefined)	> 100 µM	> 100 µM	> 100 µM	> 100 µM	> 100 µM	> 100 µM	> 100 µM	> 100 µM	> 100 µM	> 100 µM	–	–	–	–	–	–	–	–	–
OC(CCN1CCN(CCOC(c2ccc(F)cc2)c2ccc(F)cc2)CC1)c1ccc(Br)cc1 (centres undefined)	19.9 µM	16.4 µM	8.07 µM	17 µM	20.9 µM	24.1 µM	3.84 µM	4.61 µM	5.71 µM	18.9 µM	–	–	–	–	–	–	–	–	–
CCC(C)C(NC(=O)C(CCCC[N+](=N)N)NC(=O)C(CCCC[N+](=N)N)NC(=O)c1ccc(OC)cc1)C(=O)NC(CCCC[N+](=N)N)C(=O)N1CCCC1C(=O)NC(CCCCN)C(=O)NC(CC(C)C)C(N)=O (centres undefined)	> 100 µM	> 100 µM	> 100 µM	> 100 µM	> 100 µM	> 100 µM	> 100 µM	> 100 µM	> 100 µM	> 100 µM	–	–	–	–	–	–	–	–	–
Cc1nc2ccccc2n1Cc1ccc(NC(=S)Nc2ccccc2)cc1	> 100 µM	> 100 µM	> 100 µM	> 100 µM	> 100 µM	> 100 µM	> 100 µM	> 100 µM	> 100 µM	> 100 µM	–	–	–	–	–	–	–	–	–
O=C1C=CC(=O)c2c(O)c(N3CCN(c4ncccn4)CC3)c(Cl)c(O)c21	3.75 µM	12 µM	15.2 µM	5.42 µM	3.47 µM	22.6 µM	3.36 µM	3.45 µM	4.4 µM	4.59 µM	–	–	–	–	–	–	–	–	–
CN(C)CN1C(=O)/C(=N\n2c(-c3ccncc3)n[nH]c2=S)c2ccccc21	> 100 µM	> 100 µM	> 100 µM	> 100 µM	> 100 µM	> 100 µM	> 100 µM	32.9 µM	> 100 µM	> 100 µM	–	–	–	–	–	–	–	–	–
COC(=O)[C@@H]1[C@H]2CC[C@]3(C)[C@@H](OC(C)=O)CC[C@H]3[C@@H]2CC[C@H]1C1(C)SCCS1	62.1 µM	54.4 µM	74.2 µM	> 100 µM	> 100 µM	74.5 µM	29.3 µM	53.3 µM	> 100 µM	86.7 µM	–	–	–	–	–	–	–	–	–
O=C1c2cccnc2C(=O)c2c1nc1ccccc1c2-c1ccc2c3c(nc4ccccc42)C(=O)c2cccnc2-c13	9.49 µM	9.01 µM	12.5 µM	4.1 µM	19.1 µM	6.86 µM	5.68 µM	5.38 µM	10 µM	2.67 µM	–	–	–	–	–	–	–	–	–
O=C(CCl)Nc1ccc(C(=O)N/N=C/c2ccc(Cl)cc2)cc1	3.68 µM and 0.417 µM	3.61 µM and 3.24 µM	3.84 µM and 2.74 µM	6.57 µM and 9.22 µM	3.91 µM and 29.5 µM	15.2 µM	4.05 µM and 1.44 µM	3.73 µM and 25 µM	4.39 µM and 3.35 µM	3.19 µM and 6.87 µM	0.198 µM	1.84 µM	2.92 µM	1.83 µM	3.96 µM	2.01 µM	12.2 µM	1.87 µM	1.62 µM
Cc1ccc2nc(Nc3ccccc3C)c(Nc3ccccc3C)nc2c1	> 100 µM	> 70 µM	45.8 µM	> 100 µM	> 92.7 µM	49.1 µM	30.6 µM	72.3 µM	> 95.7 µM	45.6 µM	–	–	–	–	–	–	–	–	–
CC(C)(C)C#CI1OC(=O)c2ccccc21	34 µM	11.2 µM	18.4 µM	8.42 µM	15.8 µM	31.9 µM	4.65 µM	25.7 µM	7.21 µM	15.3 µM	–	–	–	–	–	–	–	–	–
Clc1sc(Cl)c2c1[C@H](Br)C[C@@H]2Cl	51.3 µM	83.8 µM	> 100 µM	37.4 µM	87.7 µM	> 100 µM	44.3 µM	78.2 µM	64.2 µM	43.2 µM	–	–	–	–	–	–	–	–	–
COc1ccc2c(c1)-c1nc(=S)n(CCN(C)C)c3ccc([N+](=O)[O-])c(c13)N2	2.68 µM	2.44 µM	6.27 µM	4.97 µM	16.5 µM	2.28 µM	5.97 µM	5.92 µM	7.61 µM	17.9 µM	–	–	–	–	–	–	–	–	–
Brc1ccc(/C(N=N/C(=N\Sc2ccccc2)c2ccc(Br)cc2)=N/Sc2ccccc2)cc1	> 100 µM	> 100 µM	> 100 µM	> 100 µM	> 100 µM	> 100 µM	> 100 µM	> 100 µM	> 100 µM	> 100 µM	–	–	–	–	–	–	–	–	–
